{"source": "patent US12018267B2", "about": "“Plants having increased tolerance to herbicides” (BASF SE, priority 2015, dated 2024)", "key": {"[1]": {"tested_on": "O. sativa Volano-M3-CESA1 and CESA3 mutants", "assay": "Greenhouse foliar application, crop injury on tilled Rice M3 generation cellulose synthase mutants (Table E10-1)", "format": "in vivo, Oryza sativa", "settings": "foliar application 250 g ai/ha", "text": "Oryza sativa M2 Volano is a cellulose biosynthesis inhibitor susceptible rice risotto population that was subjected to sodium azide seed mutagenesis but was not tilled nor selected for CESA mutations. O. sativa Volano-M3-CESA1 and CESA3 mutants were selected from a subpopulation of O. sativa M2 Volano by sequencing CESA gene sequences in M2 plants and maintaining (producing seed through selfing) those individuals containing key mutations in these genes. The tolerance of the M3 CESA1 and CESA3 mutants was assessed using 6-(1-fluorocyclopentyl)-N2-(2,3,5,6-tetrafluorophenyl)-1,3,5-triazine-2,4-diamine, together with 1.0% DASH® EC adjuvant (BASF). The tolerance of M4 CESA1 and CESA3 mutants was assessed using 6-cyclopentyl-N4-(2,3,4,5,6-pentafluorophenyl)-1,3,5-triazine-2,4-diamine, together with 1.0% DASH® EC adjuvant (BASF).\nM3 seed, which were harvested from tilled and selected individuals containing mutations in the CESA1 and CESA3 genes, were grown in the greenhouse under natural light conditions supplemented with 400 W sodium halide lamps under a 16 hr day length. Day/night temperatures were 26 and 20° C., respectively. The number of M3 plants from each line varied between 2 and 16, depending on seed availability and germination. A non-selective CBI, azine 6-(1-fluorocyclopentyl)-N2-(2,3,5,6-tetrafluorophenyl)-1,3,5-triazine-2,4-diamine, formulated with 1.0% DASH in a water volume of 375 L/ha was applied early post-emergent (one to two leaf stage) at a rate of 250 g ai/ha to M3 CESA1 and CESA3 mutant rice plants growing in soil in the greenhouse. Only plants originating from lines having more than four seeds were subjected to herbicide treatment. CESA mutant lines with four or fewer seeds were selfed for an additional generation and then tested at the M4 generation with 6-cyclopentyl-N4-(2,3,4,5,6-pentafluorophenyl)-1,3,5-triazine-2,4-diamine. M4 plants were grown under similar conditions as M3 plants and treated with 250 g ai/ha or 500 g ai/ha of 6-cyclopentyl-N4-(2,3,4,5,6-pentafluorophenyl)-1,3,5-triazine-2,4-diamine. […] Plants without any symptoms were recorded as “0%” injury. Increasing levels of reduced leaf mass and reduced stalk stiffness, with respect to the untreated control plants, were recorded in the range of “1 to 49%” injury. Increasing levels of leaf abnormalities and leaf necrosis, along with increased levels of lodging, relative to the untreated control plants, were recorded in the range of “50 to 85%” injury. Dead or dying plants with necrosis of the apex and severe lodging were recorded between “86-100%”. Data on individual plants was assessed and recorded due to the low number of individuals per line and the fact that the CESA mutations in the M2 generation were heterozygous and therefore segregating at the M3 and M4 generations. […]"}, "[2]": {"tested_on": "transgenic Arabidopsis plants with wildtype or mutated cellulose synthase sequences (SEQ ID NO: 1 or 3)", "assay": "48-well plate growth inhibition of transgenic T2 Arabidopsis, relative tolerance rates versus non-transgenic (Table E2-1)", "format": "in vivo, Arabidopsis thaliana", "settings": "growth inhibition evaluated seven to ten days after seeding", "text": "For transformation of Arabidopsis thaliana, wildtype or mutated cellulose synthase sequences encoding for one of the following protein sequences SEQ ID NO: 1 or 3, are cloned with standard cloning techniques as described in Sambrook et al. (Molecular cloning (2001) Cold Spring Harbor Laboratory Press) in a binary vector containing resistance marker gene cassette (AHAS) and mutated cellulose synthase sequence (marked as GOI) in between ubiquitin promoter (PcUbi) and nopaline synthase terminator (NOS) sequence. Binary plasmids are introduced to Agrobacterium tumefaciens for plant transformation. Arabidopsis thaliana are transformed with wildtype or mutated cellulose synthase sequences by floral dip method as described by McElver and Singh (WO 2008/124495). Transgenic Arabidopsis plants are subjected to TaqMan analysis for analysis of the number of integration loci.\nTransgenic Arabidopsis thaliana plants (T2) are assayed for improved tolerance to azine herbicides like e. g. 6-cyclopentyl-N4-(2,3,4,5,6-pentafluorophenyl)-1,3,5-triazine-2,4-diamine in 48-well plates. Therefore, T2 seeds are surface sterilized by stirring for 5 min in ethanol+water (70+30 by volume), rinsing one time with ethanol+water (70+30 by volume) and two times with sterile, deionized water. The seeds are resuspended in 0.1% agar dissolved in water (w/v) Four to five seeds per well are plated on solid nutrient medium consisting of half-strength murashige skoog nutrient solution, pH 5.8 (Murashige and Skoog (1962) Physiologia Plantarum 15: 473-497). Compounds are dissolved in dimethylsulfoxid (DMSO) and added to the medium prior solidification (final DMSO concentration 0.1%). Multi well plates are incubated in a growth chamber at 22° C., 75% relative humidity and 110 μmol Phot*m^−2*s^−1 with 14:10 h light:dark photoperiod. Growth inhibition is evaluated seven to ten days after seeding in comparison to wild type plants. Tolerance factors are calculated based on IC50 values of growth inhibition of transformed versus non-transformed Arabidopsis plants."}}, "data": [{"molecule": "Nc1nc(Nc2c(F)c(F)cc(F)c2F)nc(C2(F)CCCC2)n1", "note": "[6-(1-fluorocyclopentyl)-N2-(2,3,5,6-tetrafluorophenyl)-1,3,5-triazine-2,4-diamine]", "values": [{"measurement": "Crop Injury Assessment (%) at 20 DAT", "setting": "[1]; Rice M3 OsCESA1 A1066T (SEQ ID 51), parental plant Het", "value": 10, "unit": "%"}, {"measurement": "Crop Injury Assessment (%) at 20 DAT", "setting": "[1]; Rice M3 OsCESA1 S827N (SEQ ID 51), parental plant Het", "value": 0, "unit": "%"}, {"measurement": "Crop Injury Assessment (%) at 20 DAT", "setting": "[1]; Rice M3 OsCESA1 V9231 (SEQ ID 51), parental plant Het", "value": 0, "unit": "%"}, {"measurement": "Crop Injury Assessment (%) at 20 DAT", "setting": "[1]; Rice M3 OsCESA3 V1022L (SEQ ID 55), parental plant Hom", "value": 20, "unit": "%"}]}, {"molecule": "Nc1nc(Nc2c(F)c(F)c(F)c(F)c2F)nc(C2CCCC2)n1", "note": "[6-cyclopentyl-N4-(2,3,4,5,6-pentafluorophenyl)-1,3,5-triazine-2,4-diamine]", "values": [{"measurement": "Relative tolerance rate of transgenic Arabidopsis plants as compared to non-transgenic (non-transgenic = 1.0)", "setting": "[2]; Construct AtCesA1_G1031R, SEQ ID 1, variant G1031R", "value": 7}, {"measurement": "Relative tolerance rate of transgenic Arabidopsis plants as compared to non-transgenic (non-transgenic = 1.0)", "setting": "[2]; Construct AtCesA1_L1011A, SEQ ID 1, variant L1011A", "value": 3}, {"measurement": "Relative tolerance rate of transgenic Arabidopsis plants as compared to non-transgenic (non-transgenic = 1.0)", "setting": "[2]; Construct AtCesA1_R292H, SEQ ID 1, variant R292H", "value": 3}, {"measurement": "Relative tolerance rate of transgenic Arabidopsis plants as compared to non-transgenic (non-transgenic = 1.0)", "setting": "[2]; Construct AtCesA1_V297M, SEQ ID 1, variant V297M", "value": 1}, {"measurement": "Relative tolerance rate of transgenic Arabidopsis plants as compared to non-transgenic (non-transgenic = 1.0)", "setting": "[2]; Construct AtCesA1_wt, SEQ ID 1, no variant", "value": 1}, {"measurement": "Relative tolerance rate of transgenic Arabidopsis plants as compared to non-transgenic (non-transgenic = 1.0)", "setting": "[2]; Construct AtCesA3_F1039L, SEQ ID 3, variant F1039L", "value": 3}, {"measurement": "Relative tolerance rate of transgenic Arabidopsis plants as compared to non-transgenic (non-transgenic = 1.0)", "setting": "[2]; Construct AtCesA3_wt, SEQ ID 3, no variant", "value": 1}]}]}
